The structures appear in SMILES notation.

Series [1] concerns the target T1, JAK2 (h) (Homo sapiens, UniProt O60674).
T1 construct: purchased Millipore UK Ltd (assays run there as a service)
Description: JAK2 kinase assay. The format is biochemical. As for the experimental part:
(§1) Kinase assays can be performed by measurement of incorporation of γ-^33P ATP into immobilized myelin basic protein (MBP). High binding white 384 well plates (Greiner) are coated with MBP (Sigma #M-1891) by incubation of 60 μL/well of 20 μg/mL MBP in Tris-buffered saline (TBS; 50 mM Tris pH 8.0, 138 mM NaCl, 2.7 mM KCl) for 24 h at 4° C. Plates are washed 3× with 100 μL TBS. Kinase reactions are carried out in a total volume of 34 μL in kinase buffer (5 mM Hepes pH 7.6, 15 mM NaCl, 0.01% bovine gamma globulin (Sigma #I-5506), 10 mM MgCl2, 1 mM DTT, 0.02% TritonX-100). Compound dilutions are performed in DMSO and added to assay wells to a final DMSO concentration of 1%. Each data point is measured in duplicate, and at least two duplicate assays are performed for each individual compound determination. Enzyme is added to final concentrations of 10 nM or 20 nM, for example. A mixture of unlabeled ATP and γ-^33P ATP is added to start the reaction (2×10^6 cpm of γ-^33P ATP per well (3000 Ci/mmole) and 10 μM unlabeled ATP, typically. The reactions are carried out for 1 h at room temperature with shaking Plates are washed 7× with TBS, followed by the addition of 50 μL/well scintillation fluid (Wallac). Plates are read using a Wallac Trilux counter. This is only one format of such assays; various other formats are possible, as known to one skilled in the art.
The above assay procedure can be used to determine the IC50 for inhibition and/or the inhibition constant, Ki. The IC50 is defined as the concentration of compound required to reduce the enzyme activity by 50% under the condition of the assay. The IC50 value is estimated by preparing a 10 point curve using a ½ log dilution series (for example, a typical curve may be prepared using the following compound concentrations: 3 μM, 1 μM, 0.3 μM, 0.1 μM, 0.03 μM, 0.01 μM, 0.003 μM, 0.001 μM, 0.0003 μM and 0 μM).
(specific activity approx. 500 cpm/pmol, concentration as required).
The kinase assays described herein were performed at Millipore UK Ltd, Dundee Technology Park, Dundee DD2 1SW, UK.

Series [2] can be described thus: Compound stability in rat liver microsomes. The format is in vitro ADME. The settings on record: pH 7.4; for half-life at 5 μM: rat liver microsomes 0.5 mg protein/mL, compound 5 μM, NADPH, 37° C., read-out: Rat T1/2; for CLint scaled at 5 μM: rat liver microsomes, in vivo CLint extrapolated. As for the experimental part:
Human or rat liver microsomes incubations were conducted in duplicate in polypropylene tubes. The typical incubation mixtures consisted of human or rat liver microsomes (0.5 mg protein/mL), compounds of interest (5 μM) and NADPH (1.0 mM) in a total volume of 200 μL potassium phosphate buffer (PBS, 100 mM, pH 7.4). Compounds were dissolved in DMSO and diluted with PBS such that the final concentration of DMSO was 0.05%. The enzymatic reactions were commenced with the addition of […] after a 3-min preincubation and incubated in a water bath open to the air at 37° C. Reactions were terminated at various time points (0, 5, 10, 15, 30, 60 min) by adding equal volume of ice-cold acetonitrile. The samples were stored at […] until LC/MS/MS assays.
The concentrations of compounds in the incubation mixtures of human or rat liver microsomes were determined by a LC/MS/MS method. The ranges of the linearity in the concentration range were determined for each tested compounds.
A parallel incubation was performed using denatured microsomes as the negative control, and reactions were terminated at various time points (0, 15, 60 min) after incubation at 37° C.
Dextromethorphan (70 μM) was selected as the positive control, and reactions were terminated at various time points (0, 5, 10, 15, 30, 60 min) after incubation at 37° C. Both positive and negative control samples were included in each assay to ensure the integrity of the microsomal incubation system.
The concentrations of compounds in human or rat liver microsome incubations were plotted as a percentage of the relevant zero time point control for each reaction. The in vivo CLint were extrapolated (ref.: Naritomi, Y.; Terashita, S.; Kimura, S.; Suzuki, A.; Kagayama, A.; and Sugiyama, Y.; Prediction of human hepatic clearance from in vivo animal experiments and in vitro metabolic studies with liver microsomes from animals and humans. Drug Metab. Dispos., 2001, 29: 1316-1324).

The target of series [3] is T2, JAK3 (h) (Homo sapiens, UniProt P52333).
T2 construct: purchased Millipore UK Ltd (assays run there as a service)
T2 sequence (P52333 1-1124): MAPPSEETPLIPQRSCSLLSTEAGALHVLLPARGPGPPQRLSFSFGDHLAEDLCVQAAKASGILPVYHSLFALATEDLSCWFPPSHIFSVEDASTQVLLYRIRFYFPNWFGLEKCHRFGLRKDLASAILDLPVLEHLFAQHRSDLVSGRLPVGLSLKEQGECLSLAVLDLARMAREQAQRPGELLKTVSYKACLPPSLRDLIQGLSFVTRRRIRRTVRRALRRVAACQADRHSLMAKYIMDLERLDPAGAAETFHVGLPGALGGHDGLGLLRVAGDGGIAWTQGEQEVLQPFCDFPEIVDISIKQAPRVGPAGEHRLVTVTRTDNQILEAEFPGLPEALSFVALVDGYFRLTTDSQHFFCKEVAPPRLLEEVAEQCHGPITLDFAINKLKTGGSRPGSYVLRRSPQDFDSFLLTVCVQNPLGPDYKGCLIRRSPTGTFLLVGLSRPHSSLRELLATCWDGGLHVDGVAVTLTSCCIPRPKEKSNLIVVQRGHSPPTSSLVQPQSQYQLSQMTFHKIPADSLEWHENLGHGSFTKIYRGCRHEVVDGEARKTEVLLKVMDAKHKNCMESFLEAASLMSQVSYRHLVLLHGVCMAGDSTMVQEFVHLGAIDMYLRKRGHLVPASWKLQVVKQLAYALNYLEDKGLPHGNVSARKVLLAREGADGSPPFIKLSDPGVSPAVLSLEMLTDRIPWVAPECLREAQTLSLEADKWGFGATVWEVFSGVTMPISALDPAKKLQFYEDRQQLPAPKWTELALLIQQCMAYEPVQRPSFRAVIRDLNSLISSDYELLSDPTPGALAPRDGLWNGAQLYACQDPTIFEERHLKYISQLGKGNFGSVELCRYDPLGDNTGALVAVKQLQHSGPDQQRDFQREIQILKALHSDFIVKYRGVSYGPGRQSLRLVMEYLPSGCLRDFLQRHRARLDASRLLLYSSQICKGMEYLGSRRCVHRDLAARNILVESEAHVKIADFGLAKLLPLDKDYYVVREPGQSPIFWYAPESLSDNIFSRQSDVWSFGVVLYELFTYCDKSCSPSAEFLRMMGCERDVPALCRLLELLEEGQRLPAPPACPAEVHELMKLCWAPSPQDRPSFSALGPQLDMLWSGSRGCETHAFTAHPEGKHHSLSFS
Briefly: JAK3 kinase assay. The format is biochemical. How it is done: as §1, with “art. […]” for “art.”

T1 sequence (O60674 whole entry): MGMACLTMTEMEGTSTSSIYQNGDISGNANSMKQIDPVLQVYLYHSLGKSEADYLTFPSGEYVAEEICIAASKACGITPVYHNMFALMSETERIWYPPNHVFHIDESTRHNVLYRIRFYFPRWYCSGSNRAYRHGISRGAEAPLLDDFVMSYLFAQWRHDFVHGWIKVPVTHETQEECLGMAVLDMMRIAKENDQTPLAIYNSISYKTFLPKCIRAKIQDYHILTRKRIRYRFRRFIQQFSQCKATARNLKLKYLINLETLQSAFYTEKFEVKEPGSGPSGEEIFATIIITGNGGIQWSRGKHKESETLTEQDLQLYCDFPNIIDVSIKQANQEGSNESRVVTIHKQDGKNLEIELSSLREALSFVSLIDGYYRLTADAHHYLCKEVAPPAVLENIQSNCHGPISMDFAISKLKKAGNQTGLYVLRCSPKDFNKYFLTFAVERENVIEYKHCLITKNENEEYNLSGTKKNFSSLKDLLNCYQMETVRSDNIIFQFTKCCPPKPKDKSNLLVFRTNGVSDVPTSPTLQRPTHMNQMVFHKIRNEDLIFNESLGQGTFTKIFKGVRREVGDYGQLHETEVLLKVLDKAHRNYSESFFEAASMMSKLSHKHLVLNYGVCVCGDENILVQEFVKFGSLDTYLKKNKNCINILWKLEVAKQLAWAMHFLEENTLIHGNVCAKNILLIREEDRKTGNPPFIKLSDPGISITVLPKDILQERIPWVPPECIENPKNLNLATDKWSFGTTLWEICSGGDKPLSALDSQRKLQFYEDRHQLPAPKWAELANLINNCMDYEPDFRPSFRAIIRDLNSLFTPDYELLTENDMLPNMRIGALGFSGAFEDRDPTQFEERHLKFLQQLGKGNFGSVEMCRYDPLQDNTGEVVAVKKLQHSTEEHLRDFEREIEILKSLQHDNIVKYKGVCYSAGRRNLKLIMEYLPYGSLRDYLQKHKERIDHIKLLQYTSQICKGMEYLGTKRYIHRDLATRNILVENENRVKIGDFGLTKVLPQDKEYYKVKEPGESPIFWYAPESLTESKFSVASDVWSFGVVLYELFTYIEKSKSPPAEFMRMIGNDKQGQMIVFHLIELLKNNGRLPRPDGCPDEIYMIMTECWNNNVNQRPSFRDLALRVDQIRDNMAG

As to `Cc1c2ccc(Nc3ncc(Cl)c(NC4CC5CN(C(=O)CC#N)CC5C4)n3)cc2nn1C` (centres unmarked) [Ex. 4, 3-(5-((5-chloro-2-((2,3-dimethyl-2H-indazol-6-yl)amino)pyrimidin-4-yl)amino)hexahydrocyclopenta[c]pyrrol-2(1H)-yl)-3-oxopropanenitrile], the IC50 in series [1] was found to be 9 nM. Moreover, in series [2], the half-life at 5 μM came out at 25.3 min and the CLint scaled at 5 μM was 98.3 mL/min/kg. The same compound displayed an IC50 in series [3] of 535 nM.
Turning to `CC(=O)N1CCC2(CCC(Nc3nc(Nc4ccc5c(C)n(C)nc5c4)ncc3Cl)CC2)CC1` [Ex. 7, 1-(9-((5-chloro-2-((2,3-dimethyl-2H-indazol-6-yl)amino)pyrimidin-4-yl)amino)-3-azaspiro[5.5]undecan-3-yl)ethanone], in series [1], the IC50 amounted to 2 nM. In series [2], the half-life at 5 μM is 29.3 min and the CLint scaled at 5 μM is 84.8 mL/min/kg. Also, half-maximal inhibition in series [3] (IC50) was put at 142 nM.

As a reminder, the IC50 is the concentration that inhibits the measured activity by half. Low readings indicate inhibition by little substance, high ones a need for much substance. Broadly, the CLint scaled is a measure of how fast metabolising enzymes remove a compound, apart from limits set by blood flow.
